# Values joined by “and” are separate entries in the source; they are usually repeats but may differ in a detail not shown here. Equal values may be shown once.
# Tests used:
# Details in all cases: displacement of [3H]-NMS, membranes from transfected CHO cells; separate determinations in one cell
# [1] = molecular target: T1, human muscarinic receptor subtype M1 (Hm1) (Homo sapiens, UniProt P11229); assay: [3H]-NMS receptor binding in CHO cell membranes, Hm1
# T1 sequence (P11229 1-460): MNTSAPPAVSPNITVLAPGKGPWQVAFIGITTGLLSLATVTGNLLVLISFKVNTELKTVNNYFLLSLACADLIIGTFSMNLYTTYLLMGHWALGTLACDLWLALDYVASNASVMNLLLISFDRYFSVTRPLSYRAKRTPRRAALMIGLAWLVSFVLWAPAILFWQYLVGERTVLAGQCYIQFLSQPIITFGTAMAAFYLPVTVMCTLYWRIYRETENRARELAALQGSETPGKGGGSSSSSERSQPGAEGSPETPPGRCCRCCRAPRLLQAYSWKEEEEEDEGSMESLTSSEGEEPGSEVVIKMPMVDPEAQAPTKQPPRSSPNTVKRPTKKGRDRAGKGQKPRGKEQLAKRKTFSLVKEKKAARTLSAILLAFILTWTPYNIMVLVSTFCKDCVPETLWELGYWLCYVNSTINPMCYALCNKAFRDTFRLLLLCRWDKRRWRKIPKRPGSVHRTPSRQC
# Description: (§1) The compounds of Formula I have shown potent binding affinity for muscarinic receptors and are thus useful as muscarinicing antagonists. […] The compounds are evaluated in standard assays used to measure muscarinic receptor binding. Specifically, the compounds are evaluated for their binding affinity toward five human muscarinic receptor subtypes (M1-M5) by the method of Dorje et al., J. Pharm. Exp. Ther., 1991;256:727-733, incorporated herein by reference. The binding is determined by measuring the displacement of [^3H]-NMS binding using membranes from transfected Chinese hamster ovary (CHO) cells. All compounds are tested two to four times with duplicate tubes (SEM is ≦10% in all cases).
# [2] = molecular target: T2, human muscarinic receptor subtype M2 (Hm2) (Homo sapiens, UniProt P08172); assay: [3H]-NMS receptor binding in CHO cell membranes, Hm2
# T2 sequence (P08172 1-466): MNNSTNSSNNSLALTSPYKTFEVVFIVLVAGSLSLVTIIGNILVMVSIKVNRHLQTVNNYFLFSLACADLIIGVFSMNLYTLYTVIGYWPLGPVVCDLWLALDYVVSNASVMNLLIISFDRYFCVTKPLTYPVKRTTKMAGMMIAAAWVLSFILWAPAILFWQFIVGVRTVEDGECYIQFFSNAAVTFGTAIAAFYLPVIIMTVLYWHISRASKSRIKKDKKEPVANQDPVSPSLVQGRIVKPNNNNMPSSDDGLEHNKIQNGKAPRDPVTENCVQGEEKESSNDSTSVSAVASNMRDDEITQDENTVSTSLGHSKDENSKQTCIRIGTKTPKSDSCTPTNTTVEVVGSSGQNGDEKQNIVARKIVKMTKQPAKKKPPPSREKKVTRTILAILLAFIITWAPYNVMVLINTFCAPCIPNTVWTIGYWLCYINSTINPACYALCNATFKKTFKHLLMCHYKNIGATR
# Description: as §1
# [3] = molecular target: human muscarinic receptor subtype M3 (Hm3) (Homo sapiens, UniProt P20309); assay: [3H]-NMS receptor binding in CHO cell membranes, Hm3
# Chain of human muscarinic receptor subtype M3 (Hm3) (P20309 whole entry): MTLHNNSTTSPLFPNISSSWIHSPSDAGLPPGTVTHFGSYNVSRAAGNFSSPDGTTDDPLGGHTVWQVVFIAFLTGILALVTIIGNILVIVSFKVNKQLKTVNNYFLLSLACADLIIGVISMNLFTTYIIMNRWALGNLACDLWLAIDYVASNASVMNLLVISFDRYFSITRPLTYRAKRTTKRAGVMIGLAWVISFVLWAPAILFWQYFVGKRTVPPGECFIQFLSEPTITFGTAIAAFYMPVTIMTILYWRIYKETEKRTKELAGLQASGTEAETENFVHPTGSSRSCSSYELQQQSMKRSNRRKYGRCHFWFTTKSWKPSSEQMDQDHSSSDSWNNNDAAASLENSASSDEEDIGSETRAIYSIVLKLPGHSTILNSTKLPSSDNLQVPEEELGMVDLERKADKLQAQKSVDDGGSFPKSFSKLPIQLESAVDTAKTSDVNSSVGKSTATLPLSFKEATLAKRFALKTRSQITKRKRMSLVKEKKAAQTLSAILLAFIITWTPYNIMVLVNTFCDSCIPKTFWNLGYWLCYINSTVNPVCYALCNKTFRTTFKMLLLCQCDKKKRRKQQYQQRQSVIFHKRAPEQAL
# Description: as §1
# [4] = molecular target: T3, human muscarinic receptor subtype M4 (Hm4) (Homo sapiens, UniProt P08173); assay: [3H]-NMS receptor binding in CHO cell membranes, Hm4
# T3 sequence (P08173 1-479): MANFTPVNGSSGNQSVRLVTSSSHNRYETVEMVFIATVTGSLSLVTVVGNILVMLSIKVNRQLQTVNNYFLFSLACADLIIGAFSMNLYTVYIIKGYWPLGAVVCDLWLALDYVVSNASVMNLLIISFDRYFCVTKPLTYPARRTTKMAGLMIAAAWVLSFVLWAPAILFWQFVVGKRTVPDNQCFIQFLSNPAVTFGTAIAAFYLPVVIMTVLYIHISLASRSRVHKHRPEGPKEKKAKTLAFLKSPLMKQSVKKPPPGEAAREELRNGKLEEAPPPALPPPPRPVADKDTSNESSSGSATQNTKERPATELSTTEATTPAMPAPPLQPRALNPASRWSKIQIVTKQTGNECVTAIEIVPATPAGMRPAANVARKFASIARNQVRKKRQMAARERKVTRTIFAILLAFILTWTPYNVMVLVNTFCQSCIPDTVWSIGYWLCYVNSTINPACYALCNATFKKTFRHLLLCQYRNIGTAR
# Description: as §1
# [5] = molecular target: T4, human muscarinic receptor subtype M5 (Hm5) (Homo sapiens, UniProt P08912); assay: [3H]-NMS receptor binding in CHO cell membranes, Hm5
# T4 sequence (P08912 1-532): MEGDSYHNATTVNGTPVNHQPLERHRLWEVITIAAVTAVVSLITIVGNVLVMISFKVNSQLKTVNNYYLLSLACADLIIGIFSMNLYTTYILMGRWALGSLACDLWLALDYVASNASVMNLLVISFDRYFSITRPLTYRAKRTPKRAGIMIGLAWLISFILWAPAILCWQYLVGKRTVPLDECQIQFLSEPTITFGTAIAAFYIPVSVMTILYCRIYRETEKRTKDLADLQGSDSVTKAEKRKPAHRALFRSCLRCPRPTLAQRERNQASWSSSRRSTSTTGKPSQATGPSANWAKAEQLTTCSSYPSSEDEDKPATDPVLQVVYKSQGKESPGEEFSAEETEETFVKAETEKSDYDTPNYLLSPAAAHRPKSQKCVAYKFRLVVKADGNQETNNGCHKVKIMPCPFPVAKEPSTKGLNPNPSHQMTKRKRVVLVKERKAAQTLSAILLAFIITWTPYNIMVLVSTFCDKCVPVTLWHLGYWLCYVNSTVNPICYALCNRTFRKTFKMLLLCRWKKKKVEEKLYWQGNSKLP
# Description: as §1
IC50 [1],IC50 [2],IC50 [3],IC50 [4],IC50 [5],SMILES
0.4 µM,3 µM,> 10 µM and 20 µM,3 µM and 0.6 µM,5 µM and 4 µM,"CCOC(=O)c1c(C)[nH]c2cc(Br)c3c(c12)CN1CCc2cc(OC)ccc2C1C3 (stereo not shown) [Compound 1, 5-Bromo-9-methoxy-2-methyl-6,11,12,13-tetrahydro-3H,6aH-3,12a-diaza-benzo[a]cyclopent[h]anthracene-1-carboxylic acid ethyl ester]"
> 10 µM,20 µM and 15 µM,> 10 µM,> 10 µM,–,"CCCc1[nH]c2ccc3c(c2c1C(=O)OCC)CN1CCc2cc(OC)ccc2C1C3 (stereo not shown) [Compound 4, 9-Methoxy-2-propyl-6,11,12,13-tetrahydro-3H6aH-3,12a-diaza-benzo[a]cyclopent[h]anthracene-1-carboxylic acid ethyl ester]"
0.5 µM and 0.4 µM,0.8 µM and 4 µM,> 10 µM,2 µM and 3 µM,10 µM and 15 µM,"CCCc1[nH]c2cc(Br)c3c(c2c1C(=O)OCC)CN1CCc2cc(OC)ccc2C1C3 (stereo not shown) [Compound 2, 5-Bromo-9-methoxy-2-propyl-6,11,12,13-tetrahydro-3H6aH-3,12a-diaza-benzo[a]cyclopent[h]anthracene-1-carboxylic acid ethyl ester]"
> 10 µM and 25 µM,25 µM,> 10 µM and 5 µM,> 10 µM and 20 µM,10 µM and 9 µM,"CCOC(=O)c1c(C)[nH]c2ccc3c(c12)CN1CCc2cc(OC)ccc2C1C3 (stereo not shown) [Compound 3, 9-methoxy-2-methyl-6,11,12,13-tetrahydro-3H,6aH-3,12a-diaza-benzo[a]cyclopent[h]anthracene-1-carboxylic acid ethyl ester]"

# Source: US6500837B2, “Fused ring system containing indole as M4 selective aza-anthracene muscarinic receptor antagonists” (Warner-Lambert Company, priority 2000, dated 2002)
